From USRE47785E1, “7-{(3S,4S)-3-[(cyclopropylamino)methyl]-4-fluoropyrrolidine-1-yl}-6-fluoro-1-(2-fluoroethyl)-8-methoxy-4-oxo-1,4-dihydroquinoline-3-carboxylic acid crystal” (KYORIN PHARMACEUTICAL CO., LTD., priority 2011, dated 2019)
Like-named read-outs stand apart in the source and are kept apart here.

Key:
[1] = Storage stability test (40° C., 75% RH, open or closed, opaque containers, HPLC); settings: for amount of remaining unaltered crystals, INITIAL: 40° C./75% RH storage test
Description: HPLC conditions: a column, which is Inertsil ODS-3V manufactured by GL Sciences Inc., and has an inner diameter of 4.6 mm, a length of 15 cm, and a particle diameter of […] was used. […] The measurement wavelength used was 294 nm.

[2] = Test of solubility in water
[3] = Test of storage stability against light (D65 fluorescent lamp irradiation)

Compound | melting point | amount of remaining unaltered crystals, INITIAL [1] | change in the amount of unaltered crystals at 4 weeks (in words) ([1]; 40° C./75% RH) | amount of remaining unaltered crystals, 4 WEEKS CLOSED CONDITION ([1]; 40° C./75% RH) | amount of remaining unaltered crystals, 4 WEEKS OPEN CONDITION ([1]; 40° C./75% RH) | SOLUBILITY [2] [mg/mL] | amount of remaining unaltered crystals, total irradiation amount 110,000 lx·hrs [3] | change in the amount of unaltered crystals at 110,000 lx·hrs (in words) [3] | amount of remaining unaltered crystals, total irradiation amount 220,000 lx·hrs [3] | amount of remaining unaltered crystals, total irradiation amount 530,000 lx·hrs [3] | amount of remaining unaltered crystals, total irradiation amount 860,000 lx·hrs [3] | amount of remaining unaltered crystals, total irradiation amount 1,280,000 lx·hrs ([3]; 1,280,000 lx·hrs) | change in the amount of crystals at 1,280,000 lx·hrs (in words) ([3]; 1,280,000 lx·hrs) | amount of remaining unaltered crystals, INITIAL [3] | change in the amount of unaltered crystals at 2 weeks (in words) ([1]; 40° C./75% RH, 2 weeks) | amount of remaining unaltered crystals, 2 WEEKS CLOSED CONDITION ([1]; 40° C./75% RH, 2 weeks) | amount of remaining unaltered crystals, 2 WEEKS OPEN CONDITION ([1]; 40° C./75% RH, 2 weeks) | SOLUBILITY ([2]; Methanesulfonate Salt) [mg/mL] | SOLUBILITY ([2]; water, SOLUBILITY) [mg/mL] | reduction in the amount of crystals at 1,280,000 lx·hrs ([3]; 1,280,000 lx·hrs) [%]
COc1c(N2C[C@H](CNC3CC3)[C@H](F)C2)c(F)cc2c(=O)c(C(=O)O)cn(CCF)c12.CS(=O)(=O)O (hydrate or solvate) [CRYSTALS OF METHANESULFONATE SALT, 7-{(3S,4S)-3-[(cyclopropylamino)methyl]-4-fluoropyrrolidine-1-yl}-6-fluoro-1-(2-fluoroethyl)-8-methoxy-4-oxo-1,4-dihydroquinoline-3-carboxylic Acid Methanesulfonate Salt] | 207 to 210 °C (dec.) |  |  |  |  |  |  |  |  |  |  |  |  |  |  |  |  |  |  | 
COc1c(N2C[C@H](CNC3CC3)[C@H](F)C2)c(F)cc2c(=O)c(C(=O)O)cn(CCF)c12.Cl [CRYSTALS A, 7-{(3S,4S)-3-[(cyclopropylamino)methyl]-4-fluoropyrrolidine-1-yl}-6-fluoro-1-(2-fluoroethyl)-8-methoxy-4-oxo-1,4-dihydroquinoline-3-carboxylic Acid Hydrochloride Salt (Crystals A)] |  | 99.52 | no change | 99.52 | 99.51 | >10 | 97.74 | almost no change | 97.43 | 97.32 | 96.32 | 91.33 | found to decrease | 98.68 |  |  |  |  |  | 
COc1c(N2C[C@H](CNC3CC3)[C@H](F)C2)c(F)cc2c(=O)c(C(=O)O)cn(CCF)c12.Cl.O [CRYSTALS B, 7-{(3S,4S)-3-[(cyclopropylamino)methyl]-4-fluoropyrrolidine-1-yl}-6-fluoro-1-(2-fluoroethyl)-8-methoxy-4-oxo-1,4-dihydroquinoline-3-carboxylic Acid Hydrochloride Salt Hydrate (Crystals B)] |  | 99.59 | no change | 99.65 | 99.64 | >10 |  |  |  |  |  |  |  |  |  |  |  |  |  | 
COc1c(N2C[C@H](CNC3CC3)[C@H](F)C2)c(F)cc2c(=O)c(C(=O)O)cn(CCF)c12.Cl.O [CRYSTALS C, 7-{(3S,4S)-3-[(cyclopropylamino)methyl]-4-fluoropyrrolidine-1-yl}-6-fluoro-1-(2-fluoroethyl)-8-methoxy-4-oxo-1,4-dihydroquinoline-3-carboxylic Acid Hydrochloride Salt Hydrate (Crystals C)] |  | 99.75 |  |  |  |  |  |  |  |  |  |  |  |  | found to decrease | 99.37 | 99.47 |  |  | 
COc1c(N2C[C@H](CNC3CC3)[C@H](F)C2)c(F)cc2c(=O)c(C(=O)O)cn(CCF)c12.CS(=O)(=O)O [CRYSTALS OF METHANESULFONATE SALT, 7-{(3S,4S)-3-[(cyclopropylamino)methyl]-4-fluoropyrrolidine-1-yl}-6-fluoro-1-(2-fluoroethyl)-8-methoxy-4-oxo-1,4-dihydroquinoline-3-carboxylic Acid Methanesulfonate Salt] |  | 95.18 | no change | 96.09 | 95.89 |  | 98.01 | almost no change | 97.5 | 96.91 | 95.37 | 95.11 | found to decrease | 98.83 |  |  |  | >10 | ≥ 10 | 
COc1c(N2C[C@H](CNC3CC3)[C@H](F)C2)c(F)cc2c(=O)c(C(=O)O)cn(CCF)c12 [FREE CRYSTALS, 7-{(3S,4S)-3-[(cyclopropylamino)methyl]-4-fluoropyrrolidine-1-yl}-6-fluoro-1-(2-fluoroethyl)-8-methoxy-4-oxo-1,4-dihydroquinoline-3-carboxylic acid] |  | 95.18 |  | 95.00 | 95.35 | <1 | 77.71 | significantly decrease | 75.31 | 66.34 | 49.82 | 44.85 |  | 96.12 |  | 95.13 | 95.27 |  | ≤ 1 | ≥ 50
